# Data: patent US20060069132A1, “Azolecarboxamide herbicides” (priority 2004, published 2006)
# Where two headings read alike, the source gives them in different places.
# Key:
# barnyardgrass [1] = assay: Test B flooded paddy test; assay type: in vivo, Echinochloa crus-galli; conditions: Echinochloa crus-galli, 336 h, 1000 g ai/ha, scale 0 to 100 (0 no effect, 100 complete control), read-out: Barnyardgrass plant response rating
# How it was run: (§1)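 Each value is a visual 0–100 response rating taken against controls 13 to 15 days after treatment in the greenhouse. Plants received formulated chemical postemergence at the 1- to 4-leaf stage or, in flooded paddy, at the 2-leaf stage.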
# corn = assay: Test B pre-/postemergence herbicide test; assay type: in vivo, Zea mays; conditions: Zea mays; for plant injury at 125 g/ha: 125 g ai/ha
# How it was run: (§2)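 Pre: seeds sown, then sprayed. Post: 1–4-leaf plants (2–18 cm) sprayed at the same time. Paddy: flooded, treated at 2-leaf stage. Formulation: non-phytotoxic solvent with surfactant. Greenhouse 13–15 days; visual 0–100 score relative to controls.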
# pigweed = assay: Test B pre-/postemergence herbicide test; assay type: in vivo, Amaranthus retroflexus; conditions: Amaranthus retroflexus, 336 h; for pest or weed control at 125 g/ha: 125 g ai/ha; for pest or weed control at 500 g/ha: 500 g ai/ha
# How it was run: as §2
# ducksalad = assay: Test B flooded paddy test; assay type: in vivo, Heteranthera limosa; conditions: Heteranthera limosa, 336 h, 1000 g ai/ha, scale 0 to 100 (0 no effect, 100 complete control), read-out: Ducksalad plant response rating
# How it was run: as §1
# blackgrass = assay: Test B postemergence herbicide test; assay type: in vivo, Alopecurus myosuroides; conditions: Alopecurus myosuroides, post-emergence, 336 h, postemergence, visual rating, scale 0 (no effect) to 100 (complete control), read-out: Blackgrass plant response rating
# How it was run: as §1
# cocklebur = assay: Test B pre-/postemergence herbicide test; assay type: in vivo, Xanthium strumarium; conditions: Xanthium strumarium; for pest or weed control at 125 g/ha: 125 g ai/ha; for pest or weed control at 500 g/ha: 500 g ai/ha
# How it was run: (§3)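 Evaluation is visual, comparing treated with control plants on a scale where 0 means no effect and 100 means full control. Treatments were preemergence, or postemergence on seedlings 2–18 cm tall, and held 13–15 days in the greenhouse.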
# giant foxtail = assay: Test B pre-/postemergence herbicide test; assay type: in vivo, Setaria faberi; conditions: Setaria faberi, 336 h; for pest or weed control at 125 g/ha: 125 g ai/ha; for pest or weed control at 500 g/ha: 500 g ai/ha
# How it was run: as §2
# wild oat = assay: Test B postemergence herbicide test; assay type: in vivo, Avena fatua; conditions: Avena fatua, post-emergence, 336 h, postemergence, visual rating, scale 0 (no effect) to 100 (complete control), read-out: Oat, Wild plant response rating
# How it was run: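 Greenhouse test; postemergence application to plants at 1–4 leaves (2–18 cm); paddy species at 2 leaves; evaluated visually vs controls at 13–15 days; scale 0–100 (100 = complete control).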
# morningglory = assay: Test B pre-/postemergence herbicide test; assay type: in vivo, Ipomoea coccinea; conditions: Ipomoea, 336 h; for pest or weed control at 125 g/ha: 125 g ai/ha; for pest or weed control at 500 g/ha: 500 g ai/ha
# How it was run: as §3
# velvetleaf = assay: Test B pre-/postemergence herbicide test; assay type: in vivo, Abutilon theophrasti; conditions: Abutilon theophrasti, 336 h; for pest or weed control at 125 g/ha: 125 g ai/ha; for pest or weed control at 500 g/ha: 500 g ai/ha
# How it was run: as §2
# rice = assay: Test B flooded paddy test; assay type: in vivo, Oryza sativa; conditions: Oryza sativa, 336 h, 1000 g ai/ha, scale 0 to 100 (0 no effect, 100 complete control), read-out: Rice plant response rating
# How it was run: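 Plants grow to 1- to 4-leaf stage (2–18 cm) for postemergence spraying, or to 2-leaf stage for the paddy test. Formulated compound is applied. Greenhouse holding lasts 13–15 days. Response is scored visually relative to controls, 0 no effect to 100 complete control; a dash means no result.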
# barnyardgrass [2] = assay: Test B pre-/postemergence herbicide test; assay type: in vivo, Echinochloa crus-galli; conditions: Echinochloa crus-galli, pre-emergence, 0 = no effect, 100 = complete control
# How it was run: as §3
# [3] = test system: small flower umbrella sedge; assay: Test B flooded paddy test; assay type: in vivo, Cyperus difformis; conditions: Cyperus difformis, 336 h, 1000 g ai/ha, scale 0 to 100 (0 no effect, 100 complete control), read-out: Sedge, Umbrella plant response rating
# How it was run: as §1
# lambsquarters = assay: Test B pre-/postemergence herbicide test; assay type: in vivo, Chenopodium album; conditions: Chenopodium album, 336 h; for pest or weed control at 125 g/ha: 125 g ai/ha; for pest or weed control at 500 g/ha: 500 g ai/ha
# How it was run: as §2
# large crabgrass = assay: Test B pre-/postemergence herbicide test; assay type: in vivo, Digitaria sanguinalis; conditions: Digitaria sanguinalis; for pest or weed control at 125 g/ha: 125 g ai/ha; for pest or weed control at 500 g/ha: 500 g ai/ha
# How it was run: as §2
# [4] = post-emergence, postemergence, visual rating, scale 0 (no effect) to 100 (complete control), read-out: Pigweed plant response rating
# [5] = post-emergence, postemergence, visual rating, scale 0 (no effect) to 100 (complete control), read-out: Cocklebur plant response rating
# [6] = post-emergence, postemergence, visual rating, scale 0 (no effect) to 100 (complete control), read-out: Foxtail, Giant plant response rating
# [7] = post-emergence, postemergence, visual rating, scale 0 (no effect) to 100 (complete control), read-out: Morningglory plant response rating
# [8] = post-emergence, postemergence, visual rating, scale 0 (no effect) to 100 (complete control), read-out: Velvetleaf plant response rating
# [9] = post-emergence, postemergence, visual rating, scale 0 (no effect) to 100 (complete control), read-out: Lambsquarters plant response rating
# [10] = post-emergence, postemergence, visual rating, scale 0 (no effect) to 100 (complete control), read-out: Crabgrass, Large plant response rating
smiles,measurement,setting,value
"CCn1nc(C(C)(C)C)cc1C(=O)Nc1ccc(F)c(C(=O)N(C)C)c1 [Compound 236, N-[3-[(dimethylamino)carbonyl]-4-fluorophenyl]-3-(1,1-dimethylethyl)-1-ethyl-1H-pyrazole-5-carboxamide]",pest or weed control at 1000 g/ha,barnyardgrass [1],80%
same,plant injury at 125 g/ha,"corn; post-emergence, postemergence, visual rating, scale 0 (no effect) to 100 (complete control), read-out: Corn plant response rating",20%
same,plant injury at 500 g/ha,"corn; post-emergence, postemergence, 500 g ai/ha, visual rating, scale 0 (no effect) to 100 (complete control), read-out: Corn plant response rating",40%
same,plant injury at 125 g/ha,"corn; pre-emergence, 0 = no effect, 100 = complete control, read-out: Corn plant response rating (0 to 100 scale)",0%
same,"Corn plant response rating (crop injury, 0 = no effect, 100 = complete kill) at 500 g/ha","corn; pre-emergence, 500 g ai/ha, visual rating, 0 = no effect, 100 = complete control",10%
same,pest or weed control at 125 g/ha,pigweed; [4],60%
same,pest or weed control at 500 g/ha,pigweed; [4],70%
same,pest or weed control at 125 g/ha,"pigweed; pre-emergence, 0 = no effect, 100 = complete control, read-out: Pigweed plant response rating (0 to 100 scale)",30%
same,pest or weed control at 500 g/ha,"pigweed; pre-emergence, visual rating, 0 = no effect, 100 = complete control, read-out: Plant response rating, Pigweed",90%
same,pest or weed control at 1000 g/ha,ducksalad,90%
same,pest or weed control at 125 g/ha,blackgrass; 125 g ai/ha,0%
same,pest or weed control at 500 g/ha,blackgrass; 500 g ai/ha,10%
same,pest or weed control at 125 g/ha,cocklebur; [5],20%
same,pest or weed control at 500 g/ha,cocklebur; [5],40%
same,pest or weed control at 125 g/ha,"cocklebur; pre-emergence, 0 = no effect, 100 = complete control, read-out: Cocklebur plant response rating (0 to 100 scale)",0%
same,pest or weed control at 500 g/ha,"cocklebur; pre-emergence, visual rating, 0 = no effect, 100 = complete control, read-out: Plant response rating, Cocklebur",20%
same,pest or weed control at 125 g/ha,giant foxtail; [6],10%
same,pest or weed control at 500 g/ha,giant foxtail; [6],40%
same,pest or weed control at 125 g/ha,"giant foxtail; pre-emergence, 0 = no effect, 100 = complete control, read-out: Foxtail, Giant plant response rating (0 to 100 scale)",10%
same,pest or weed control at 500 g/ha,"giant foxtail; pre-emergence, visual rating, 0 = no effect, 100 = complete control, read-out: Plant response rating, Foxtail, Giant",50%
same,pest or weed control at 125 g/ha,wild oat; 125 g ai/ha,20%
same,pest or weed control at 500 g/ha,wild oat; 500 g ai/ha,20%
same,pest or weed control at 125 g/ha,morningglory; [7],10%
same,pest or weed control at 500 g/ha,morningglory; [7],60%
same,pest or weed control at 125 g/ha,"morningglory; pre-emergence, 0 = no effect, 100 = complete control, read-out: Morningglory plant response rating (0 to 100 scale)",0%
same,pest or weed control at 500 g/ha,"morningglory; pre-emergence, visual rating, 0 = no effect, 100 = complete control, read-out: Plant response rating, Morningglory",20%
same,pest or weed control at 125 g/ha,velvetleaf; [8],20%
same,pest or weed control at 500 g/ha,velvetleaf; [8],50%
same,pest or weed control at 125 g/ha,"velvetleaf; pre-emergence, 0 = no effect, 100 = complete control, read-out: Velvetleaf plant response rating (0 to 100 scale)",20%
same,pest or weed control at 500 g/ha,"velvetleaf; pre-emergence, visual rating, 0 = no effect, 100 = complete control, read-out: Plant response rating, Velvetleaf",80%
same,plant injury at 1000 g/ha,rice,70%
same,pest or weed control at 125 g/ha,"barnyardgrass [2]; 125 g ai/ha, read-out: Barnyardgrass plant response rating (0 to 100 scale)",50%
same,pest or weed control at 500 g/ha,"barnyardgrass [2]; 500 g ai/ha, visual rating, read-out: Plant response rating, Barnyardgrass",90%
same,pest or weed control at 1000 g/ha,[3],80%
same,pest or weed control at 125 g/ha,lambsquarters; [9],60%
same,pest or weed control at 500 g/ha,lambsquarters; [9],70%
same,pest or weed control at 125 g/ha,"lambsquarters; pre-emergence, 0 = no effect, 100 = complete control, read-out: Lambsquarters plant response rating (0 to 100 scale)",50%
same,pest or weed control at 500 g/ha,"lambsquarters; pre-emergence, visual rating, 0 = no effect, 100 = complete control, read-out: Plant response rating, Lambsquarters",100%
same,pest or weed control at 125 g/ha,large crabgrass; [10],0%
same,pest or weed control at 500 g/ha,large crabgrass; [10],20%
same,pest or weed control at 125 g/ha,"large crabgrass; pre-emergence, 0 = no effect, 100 = complete control, read-out: Crabgrass, Large plant response rating (0 to 100 scale)",30%
same,pest or weed control at 500 g/ha,"large crabgrass; pre-emergence, visual rating, 0 = no effect, 100 = complete control, read-out: Plant response rating, Crabgrass, Large",70%
